Values after ≈ are worked out from the molar mass of the structure shown.
Tests used:
Type in all cases: cell-based
[1] = test system: Pseudomonas aeruginosa (ATCC27853); test: Microtitre plate assay, IC90 determination, PAE 27853; conditions: 90% inhibitory concentration for bacterial growth, 37° C., resazurin fluorescence; for IC90: Pseudomonas aeruginosa, ATCC27853, 24 h, read-out: IC90 (μg/ml) PAE 27853
Procedure: (§1) The bacteria used in this study were grown overnight in flasks containing 100 ml Mueller-Hinton Broth (Becton Dickinson—cat. no. 275730) in sterile de-ionized water, with shaking, at 37° C. Stocks (0.5 ml/tube) were stored at −70° C. until use. Bacteria titrations were performed in microtiter plates to detect the TCID50, in which the TCID50 represents the dilution that gives rise to bacterial growth in 50% of inoculated cultures.
(§2) In general, an inoculum level of approximately 100 TCID50 was used for susceptibility testing.
(§3) Flat-bottom, sterile 96-well plastic microtiter plates were filled with 180 μl of sterile deionized water, supplemented with 0.25% BSA. Subsequently, stock solutions (7.8× final test concentration) of compounds were added in 45 μl volumes in column 2. Serial five-fold dilutions (45 μl in 180 μl) were made directly in the microtiter plates from column 2 to reach column 11. Untreated control samples with (column 1) and without (column 12) inoculum were included in each microtiter plate. Depending on the bacteria type, approximately 10 to 60 CFU per well of bacteria inoculum (100 TCID50), in a volume of 100 μl in 2.8× Mueller-Hinton broth medium, was added to the rows A to H, except column 12. The same volume of broth medium without inoculum was added to column 12 in row A to H. The cultures were incubated at 37° C. for 24 hours under a normal atmosphere (incubator with open air valve and continuous ventilation). At the end of incubation, one day after inoculation, the bacterial growth was quantitated fluorometrically. Therefore resazurin (0.6 mg/ml) was added in a volume of 20 μl to all wells 3 hours after inoculation, and the plates were re-incubated overnight. A change in colour from blue to pink indicated the growth of bacteria. The fluorescence was read in a computer-controlled fluorometer (Cytofluor Biosearch) at an excitation wavelength of 530 nm and an emission wavelength of 590 nm. The % growth inhibition achieved by the compounds was calculated according to standard methods. The IC90 (expressed in μg/ml) was defined as the 90% inhibitory concentration for bacterial growth.
(§4) BSU 3639 means Bacillus subtilis (ATCC43639); ECO 25922 means Escherichia coli (ATCC25922); EFA 14506 means Enterococcus faecalis (ATCC14506); EFA 29212 means Enterococcus faecalis (ATCC29212); LMO 49594 means Listeria monocytogenes (ATCC49594); PAE 27853 means Pseudomonas aeruginosa (ATCC27853); SMU 33402 means Streptococcus mutans (ATCC33402); SPN 6305 means Streptococcus pneumoniae (ATCC6305); SPY 8668 means Streptococcus pyogens (ATCC8668); STA 43300 means Staphylococcus aureus (ATCC43300); STA 25923 means Staphylococcus aureus (ATCC25923); STA 29213 means Staphylococcus aureus (ATCC29213); STA RMETH means methicilline resistant Staphylococcus aureus (MRSA) (a clinical isolate from the University of Antwerp). ATCC means American type tissue culture.

[2] = test system: Enterococcus faecalis (ATCC29212); test: Microtitre plate assay, IC90 determination, EFA 29212; conditions: 90% inhibitory concentration for bacterial growth, 37° C., resazurin fluorescence; for IC90: Enterococcus faecalis, ATCC29212, 24 h, read-out: IC90 (μg/ml) EFA 29212; for IC90 (μg/ml) EFA 29212: 24 hours
Procedure: as §1, §2, §3, §4

[3] = test system: Listeria monocytogenes (ATCC49594); test: Microtitre plate assay, IC90 determination, LMO 49594; conditions: 90% inhibitory concentration for bacterial growth, 37° C., resazurin fluorescence; for IC90: Listeria monocytogenes, ATCC49594, 24 h, read-out: IC90 (μg/ml) LMO 49594; for IC90 (μg/ml) LMO 49594: 24 hours
Procedure: as §1, §2, §3, §4

[4] = test system: Bacillus subtilis (ATCC43639); test: Microtitre plate assay, IC90 determination, BSU 43639; conditions: 90% inhibitory concentration for bacterial growth, 37° C., resazurin fluorescence; for IC90: Bacillus subtilis, ATCC43639, 24 h, read-out: IC90 (μg/ml) BSU 43639
Procedure: as §1, §2, §3, §4

[5] = test system: Staphylococcus aureus (ATCC25923); test: Microtitre plate assay, IC90 determination, STA 25923; conditions: Staphylococcus aureus, ATCC25923, 24 h, 90% inhibitory concentration for bacterial growth, 37° C., resazurin fluorescence, read-out: IC90 (μg/ml) STA 25923
Procedure: as §1, §2, §3, §4

[6] = test system: Streptococcus mutans (ATCC33402); test: Microtitre plate assay, IC90 determination, SMU 33402; conditions: 90% inhibitory concentration for bacterial growth, 37° C., resazurin fluorescence; for IC90: Streptococcus mutans, ATCC33402, 24 h, read-out: IC90 (μg/ml) SMU 33402; for IC90 (μg/ml) SMU 33402: 24 hours
Procedure: as §1, §2, §3, §4

[7] = test system: Staphylococcus aureus (ATCC43300); test: Microtitre plate assay, IC90 determination, STA 43300; conditions: Staphylococcus aureus, ATCC43300, 24 h, 90% inhibitory concentration for bacterial growth, 37° C., resazurin fluorescence, read-out: IC90 (μg/ml) STA 43300
Procedure: as §1, §2, §3, §4

[8] = test system: Streptococcus pyogens (ATCC8668); test: Microtitre plate assay, IC90 determination, SPY 8668; conditions: 90% inhibitory concentration for bacterial growth, 37° C., resazurin fluorescence; for IC90: Streptococcus, ATCC8668, 24 h, read-out: IC90 (μg/ml) SPY 8668; for IC90 (μg/ml) SPY 8668: 24 hours
Procedure: as §1, §2, §3, §4

[9] = test system: Streptococcus pneumoniae (ATCC6305); test: Microtitre plate assay, IC90 determination, SPN 6305; conditions: 90% inhibitory concentration for bacterial growth, 37° C., resazurin fluorescence; for IC90 (μg/ml) SPN 6305: 24 hours; for IC90: Streptococcus pneumoniae, ATCC6305, 24 h, read-out: IC90 (μg/ml) SPN 6305
Procedure: as §1, §2, §3, §4

[10] = test system: Enterococcus faecalis (ATCC14506); test: Microtitre plate assay, IC90 determination, EFA 14506; conditions: Enterococcus faecalis, ATCC14506, 24 h, 90% inhibitory concentration for bacterial growth, 37° C., resazurin fluorescence, read-out: IC90 (μg/ml) EFA 14506
Procedure: as §1, §2, §3, §4

SMILES | IC90 [1] | IC90 [2] | IC90 [3] | IC90 [4] | IC90 [6] | IC90 [7] | IC90 (μg/ml) SPN 6305 [9] | IC90 [9] | further results
COc1nc2ccc(Cl)cc2cc1C(c1ccccc1)C(O)(CCN(C)C)c1ccccc1 (centres unmarked) [Compound 30] | – | – | – | – | – | – | 5.2 µg/mL (≈ 11.3 µM) | – | IC90 (μg/ml) PAE 27853 ([1]; 24 hours): 9.2 µg/mL (≈ 20 µM); IC90 (μg/ml) EFA 29212 [2]: 10.3 µg/mL (≈ 22.3 µM); IC90 (μg/ml) SMU 33402 [6]: 10.3 µg/mL (≈ 22.3 µM); IC90 (μg/ml) SPY 8668 [8]: 10.3 µg/mL (≈ 22.3 µM); IC90 (μg/ml) LMO 49594 [3]: 10.3 µg/mL (≈ 22.3 µM)
COc1nc2ccc(Br)cc2cc1C(c1ccccc1)C(O)(CCN1CCN(C)CC1)c1ccc2ccccc2c1 (racemic) [Compound 136] | – | – | – | – | – | – | – | – | IC90 (μg/ml) EFA 29212 [2]: 10.6 µg/mL (≈ 17.4 µM); IC90 (μg/ml) LMO 49594 [3]: 10.6 µg/mL (≈ 17.4 µM); IC90 (μg/ml) BSU 43639 ([4]; 24 hours): 10.6 µg/mL (≈ 17.4 µM)
COc1nc2ccc(Br)cc2cc1C(c1ccccc1)C(O)(CCN1CCCCC1)c1ccc2cc(Br)ccc2c1 (centres unmarked) [Compound 155] | – | – | – | – | – | – | – | – | IC90 [10]: 26.9 µg/mL (≈ 39.9 µM)
COc1nc2ccc(Br)cc2cc1C(c1ccccc1)C(O)(CCN(C)C)c1ccc2c(c1)OCO2 (centres unmarked) [Compound 76] | 11 µg/mL (≈ 20 µM) | – | 11 µg/mL (≈ 20 µM) | – | – | – | – | – | –
COc1nc2ccc(Br)cc2cc1C(c1ccccc1)C(O)(CCN(C)C)c1cccs1 (centres unmarked) [Compound 21] | – | 11.5 µg/mL (≈ 22.5 µM) | 4.6 µg/mL (≈ 8.99 µM) | – | 11.5 µg/mL (≈ 22.5 µM) | 12.8 µg/mL (≈ 25 µM) | 12.8 µg/mL (≈ 25 µM) | – | –
COc1nc2ccc(Br)cc2cc1C(c1ccccc1)C(O)(CCN(C)C)c1ccc(Cl)cc1 (centres unmarked) [Compound 16] | 13.6 µg/mL (≈ 25.2 µM) | – | – | – | – | – | – | – | –
COc1nc2ccc(Br)cc2cc1C(c1ccccc1)C(O)(CCN1CCCCC1)c1ccccc1 (centres unmarked) [Compound 48] | 10.9 µg/mL (≈ 20 µM) | – | 10.9 µg/mL (≈ 20 µM) | – | 10.9 µg/mL (≈ 20 µM) | – | – | 13.7 µg/mL (≈ 25.1 µM) | IC90 [8]: 13.7 µg/mL (≈ 25.1 µM)
COc1nc2ccc(Br)cc2cc1C(c1ccccc1)C(O)(CCN(C)C)c1ccccc1F (centres unmarked) [Compound 69] | 10.4 µg/mL (≈ 19.9 µM) | – | 10.4 µg/mL (≈ 19.9 µM) | – | – | – | – | 13.1 µg/mL (≈ 25 µM) | –

More lines, main results first:

IC90 [1] | IC90 [2] | IC90 [3] | IC90 [4] | IC90 [6] | IC90 [7] | IC90 (μg/ml) SPN 6305 [9] | IC90 [9] | SMILES | further results
12.3 µg/mL (≈ 19.9 µM) | 12.3 µg/mL (≈ 19.9 µM) | 12.3 µg/mL (≈ 19.9 µM) | 12.3 µg/mL (≈ 19.9 µM) | – | – | – | – | COc1nc2ccc(Br)cc2cc1C(c1ccccc1)C(O)(CCN(C)C)C1CCN(C(=O)c2ccccc2)CC1 (centres unmarked) [Compound 201] | –
2 µg/mL (≈ 3.98 µM) | 4.5 µg/mL (≈ 8.95 µM) | 4.5 µg/mL (≈ 8.95 µM) | 10 µg/mL (≈ 19.9 µM) | 11.3 µg/mL (≈ 22.5 µM) | 11.3 µg/mL (≈ 22.5 µM) | 5.6 µg/mL (≈ 11.1 µM) | – | COc1nc2ccc(-c3ccccc3)cc2cc1C(c1ccccc1)C(O)(CCN(C)C)c1ccccc1 (centres unmarked) [Compound 26] | IC90 [5]: 8.9 µg/mL (≈ 17.7 µM); IC90 [8]: 2.5 µg/mL (≈ 4.97 µM)
10.1 µg/mL (≈ 20 µM) | 11.3 µg/mL (≈ 22.4 µM) | 7.1 µg/mL (≈ 14 µM) | 12.7 µg/mL (≈ 25.1 µM) | – | 12.7 µg/mL (≈ 25.1 µM) | 5.7 µg/mL (≈ 11.3 µM) | – | COc1nc2ccc(Br)cc2cc1C(c1ccccc1)C(O)(CCN(C)C)c1ccccc1 (single isomer, unassigned) [E] | IC90 (μg/ml) SMU 33402 [6]: 10.1 µg/mL (≈ 20 µM); IC90 (μg/ml) SPY 8668 [8]: 5.1 µg/mL (≈ 10.1 µM)
5 µg/mL (≈ 9 µM) | 5 µg/mL (≈ 9 µM) | 2.8 µg/mL (≈ 5.04 µM) | – | 5.6 µg/mL (≈ 10.1 µM) | 5.6 µg/mL (≈ 10.1 µM) | – | 2.8 µg/mL (≈ 5.04 µM) | COc1nc2ccc(Br)cc2cc1C(c1ccccc1)C(O)(CCN(C)C)c1ccc2ccccc2c1 (centres unmarked) [Compound 46] | IC90 [8]: 0.6 µg/mL (≈ 1.08 µM)
10.3 µg/mL (≈ 22.3 µM) | – | – | 10.3 µg/mL (≈ 22.3 µM) | 10.3 µg/mL (≈ 22.3 µM) | 11.6 µg/mL (≈ 25.2 µM) | – | 5.2 µg/mL (≈ 11.3 µM) | COc1nc2ccc(Cl)cc2cc1C(c1ccccc1)C(O)(CCN(C)C)c1ccccc1 (centres unmarked) [Compound 31] | IC90 (μg/ml) EFA 29212 [2]: 4.6 µg/mL (≈ 9.98 µM); IC90 (μg/ml) SPY 8668 [8]: 1.8 µg/mL (≈ 3.9 µM); IC90 (μg/ml) LMO 49594 [3]: 4.1 µg/mL (≈ 8.89 µM)

From patent publication US7709498B2, “Quinoline derivatives as antibacterial agents” (Janssen Pharmaceutica N.V., priority 2005, dated 2010)
